# Source: patent US20180117052A1, “COMBINATION THERAPIES FOR TREATING CANCERS” (Gilead Scienes, Inc., priority 2015, published 2018)
# Tested on: CD5+/CD19+ cells of PBMCs from primary chronic lymphocytic leukemia (CLL) patients
# Test: Human CLL apoptosis assay (AnnexinV+ cells by flow cytometry)
# Format: cell-based
# Conditions: no HS-5 co-culture
# Experimental: Peripheral blood mononuclear cells (PBMCs) were isolated from primary chronic lymphocytic leukemia (CLL) patients and cultured for 3-5 hours in Lymphocyte Growth Medium (LGM, RPMI 1640, 1 mM Sodium Pyruvate, 10 mM HEPES, pH 7.4, 100 U/mL Penicillin/100 μg/mL Streptomycin, 55 μM β-Mercaptoethanl, 2 mM GlutaMAX, and 10% FBS) at 37° C. with 5% CO2. Cells were then centrifuged at room temperature for 10 minutes and resuspended in an appropriate volume of LGM for plating (maximum cell density=3.12×10^6/ml). Final assay wells were set up in U-bottom 96-well tissue culture plates with HS-5 co-culture (plates were coated with 3×10^4 HS-5 cells in 100 μl overnight at 37° C. prior to the assay) or no co-culture.
# Cell suspensions (80 μL, 2.5×10^5-9.4×10^4) were added to the plate and incubated for 1 hour prior to stimulation with αIgM/αIgG (7.8 μg/well) and αCD40 (4 μg/well). Cells were incubated with compounds for about 66 hours at 37° C. After incubation, the cells were transferred to deeper plates and washed once with 500 μL of 1× PBS^+/+. Cells were resuspended in Invitrogen's aqua Live/Dead reagent according to manufacturer's directions and incubated 30 minutes on ice. Aqua Live/Dead was quenched with an equal volume of PBS^+/+ with 4% FBS (FACS buffer). Cells were centrifuged and labeled with αCD5-PE, αCD19-BV421 and AnnexinV-APC in a total volume of 85 μL and incubated 30 minutes on ice. After labeling, cells were rinsed twice in FACS buffer and then fixed with BD Fixation buffer for 30 minutes on ice. Cells were rinsed twice with FACS buffer and analyzed.
# For the apoptosis analysis, flow cytometric sampling of 5000-20,000 total events were collected on a BD FACS Canto II instrument using a high throughput screen (HTS) autosampler for analysis of apoptosis. CD5^+/CD19^+ cells were identified and subsequently gated for AnnexinV^+/LiveDead and AnnexinV^+/LiveDead^+ populations.
# Flow cytometric data were extracted to a flow cytometry standard (fcs) file. Average percentages of AnnexinV^+ cells were determined for the positive control and negative wells (no compound). The percentage of AnnexinV^+ cells represented the percentage or levels of apoptosis. Similar results were obtained for CLL cells with HS-5 co-culture.
compound,measurement,setting,value
"c1cn2cc(-c3ccc4cn[nH]c4c3)nc(Nc3ccc(N4CCOCC4)cc3)c2n1 [Compound A1, 6-(1H-indazol-6-yl)-N-(4-morpholinophenyl)imidazo[1,2-a]pyrazin-8-amine]",Percentage of the AnnexinV^+ cells,"Sample 1, 30 nM Compound A1, 0 nM Compound B1",12%
same,Percentage of the AnnexinV^+ cells,"Sample 1, 100 nM Compound A1, 0 nM Compound B1",12%
same,Percentage of the AnnexinV^+ cells,"Sample 1, 300 nM Compound A1, 0 nM Compound B1",16%
same,Percentage of the AnnexinV^+ cells,"Sample 2, 30 nM Compound A1, 0 nM Compound B1",9%
same,Percentage of the AnnexinV^+ cells,"Sample 2, 100 nM Compound A1, 0 nM Compound B1",12%
same,Percentage of the AnnexinV^+ cells,"Sample 2, 300 nM Compound A1, 0 nM Compound B1",20%
same,Percentage of the AnnexinV^+ cells,"Sample 3, 30 nM Compound A1, 0 nM Compound B1",13%
same,Percentage of the AnnexinV^+ cells,"Sample 3, 100 nM Compound A1, 0 nM Compound B1",15%
same,Percentage of the AnnexinV^+ cells,"Sample 3, 300 nM Compound A1, 0 nM Compound B1",18%
"CC1(C)CCC(CN2CCN(c3ccc(C(=O)NS(=O)(=O)c4ccc(NCC5CCOCC5)c([N+](=O)[O-])c4)c(Oc4cnc5[nH]ccc5c4)c3)CC2)=C(c2ccc(Cl)cc2)C1 [Compound B1, (4-(4-{[2-(4-chlorophenyl)-4,4-dimethylcyclohex-1-en-1-yl]methyl}piperazin-1-yl)-N-({3-nitro-4-[(tetrahydro-2H-pyran-4-yl-methyl)amino]phenyl}sulfonyl)-2-(1H-pyrrolo[2,3-b]pyridin-5-yl-oxy)benzamide)]",Percentage of the AnnexinV^+ cells,"Sample 1, 0 nM Compound A1, 0.8 nM Compound B1",13%
same,Percentage of the AnnexinV^+ cells,"Sample 1, 0 nM Compound A1, 1.6 nM Compound B1",15%
same,Percentage of the AnnexinV^+ cells,"Sample 1, 0 nM Compound A1, 3.1 nM Compound B1",15%
same,Percentage of the AnnexinV^+ cells,"Sample 1, 0 nM Compound A1, 6.3 nM Compound B1",16%
same,Percentage of the AnnexinV^+ cells,"Sample 1, 0 nM Compound A1, 12.5 nM Compound B1",19%
same,Percentage of the AnnexinV^+ cells,"Sample 1, 0 nM Compound A1, 25 nM Compound B1",24%
same,Percentage of the AnnexinV^+ cells,"Sample 1, 0 nM Compound A1, 50 nM Compound B1",31%
same,Percentage of the AnnexinV^+ cells,"Sample 1, 0 nM Compound A1, 100 nM Compound B1",36%
same,Percentage of the AnnexinV^+ cells,"Sample 1, 0 nM Compound A1, 200 nM Compound B1",46%
same,Percentage of the AnnexinV^+ cells,"Sample 2, 0 nM Compound A1, 0.8 nM Compound B1",10%
same,Percentage of the AnnexinV^+ cells,"Sample 2, 0 nM Compound A1, 1.6 nM Compound B1",18%
same,Percentage of the AnnexinV^+ cells,"Sample 2, 0 nM Compound A1, 3.1 nM Compound B1",35%
same,Percentage of the AnnexinV^+ cells,"Sample 2, 0 nM Compound A1, 6.3 nM Compound B1",55%
same,Percentage of the AnnexinV^+ cells,"Sample 2, 0 nM Compound A1, 12.5 nM Compound B1",76%
same,Percentage of the AnnexinV^+ cells,"Sample 2, 0 nM Compound A1, 25 nM Compound B1",89%
same,Percentage of the AnnexinV^+ cells,"Sample 2, 0 nM Compound A1, 50 nM Compound B1",93%
same,Percentage of the AnnexinV^+ cells,"Sample 2, 0 nM Compound A1, 100 nM Compound B1",95%
same,Percentage of the AnnexinV^+ cells,"Sample 2, 0 nM Compound A1, 200 nM Compound B1",97%
same,Percentage of the AnnexinV^+ cells,"Sample 3, 0 nM Compound A1, 0.8 nM Compound B1",16%
same,Percentage of the AnnexinV^+ cells,"Sample 3, 0 nM Compound A1, 1.6 nM Compound B1",21%
same,Percentage of the AnnexinV^+ cells,"Sample 3, 0 nM Compound A1, 3.1 nM Compound B1",33%
same,Percentage of the AnnexinV^+ cells,"Sample 3, 0 nM Compound A1, 6.3 nM Compound B1",50%
same,Percentage of the AnnexinV^+ cells,"Sample 3, 0 nM Compound A1, 12.5 nM Compound B1",69%
same,Percentage of the AnnexinV^+ cells,"Sample 3, 0 nM Compound A1, 25 nM Compound B1",89%
same,Percentage of the AnnexinV^+ cells,"Sample 3, 0 nM Compound A1, 50 nM Compound B1",97%
same,Percentage of the AnnexinV^+ cells,"Sample 3, 0 nM Compound A1, 100 nM Compound B1",99%
same,Percentage of the AnnexinV^+ cells,"Sample 3, 0 nM Compound A1, 200 nM Compound B1",100%
